{"source": "PubChem BioAssay AID698", "about": "(NMMLSC, 2007)", "note": "Activity calls are given as the source filed them. No rule for the calls is given here.", "data": [{"target": "N-formyl peptide receptor 2 (Homo sapiens) (UniProt P25090)", "sequence (P25090 whole entry, looked up)": "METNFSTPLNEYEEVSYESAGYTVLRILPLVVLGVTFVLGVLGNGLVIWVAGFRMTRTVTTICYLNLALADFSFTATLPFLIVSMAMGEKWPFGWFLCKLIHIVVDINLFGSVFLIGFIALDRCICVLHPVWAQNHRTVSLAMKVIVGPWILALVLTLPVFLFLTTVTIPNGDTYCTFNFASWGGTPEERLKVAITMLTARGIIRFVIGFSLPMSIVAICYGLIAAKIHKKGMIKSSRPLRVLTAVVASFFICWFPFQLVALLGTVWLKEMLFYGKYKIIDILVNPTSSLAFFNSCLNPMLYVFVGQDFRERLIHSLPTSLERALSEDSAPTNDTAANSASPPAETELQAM", "test": "FPRL1 antagonists blocking calcium signaling, confirmation, cell-based, calcium response (AID 698)", "conditions": "FPRL1-expressing cells, ligand-induced calcium response, antagonist mode; active compounds read high; concentration not given here", "values": [{"smiles": "O=C(O)CCCNc1cc(N2CCC3(CC2)OCCO3)c2noc3c2c1C(=O)c1ccccc1-3", "inhibition": "0% (inactive)"}, {"smiles": "Nc1ccc(Nc2ccccc2N)cc1", "inhibition": "69.5% (inactive)"}, {"smiles": "CCOc1cc(C(=O)NCc2nnc(SCC(=O)OC)n2C)cc(OCC)c1OCC", "inhibition": "0% (inactive)"}, {"smiles": "COc1ccc(-c2cc(C(F)(F)F)nc(N3CCN(Cc4ccccc4)CC3)n2)cc1OC", "inhibition": "96.3%"}, {"smiles": "CC(=O)OCCNc1cc(N2CCN(C)CC2)c2noc3c2c1C(=O)c1ccccc1-3", "inhibition": "93.4%"}, {"smiles": "COc1ccc(-c2cn3cccnc3n2)cc1NC(=O)C1CC1", "inhibition": "98.1%"}, {"smiles": "CCOC(=O)CSc1nnc(CNC(=O)c2cc(OCC)c(OCC)c(OCC)c2)n1C", "inhibition": "0% (inactive)"}]}]}
